We go through one substance from patent EP0998480B1, “NUCLEOTIDE ANALOG COMPOSITION AND SYNTHESIS METHOD” (GILEAD SCIENCES, INC., priority 1997, dated 1999).

Data set [1] is described as follows: solid state chemical stability on storage at elevated temperature and relative humidity. The conditions noted are these: for BPPF% / mono(POC) PMPA fumarate%: 75% relative humidity, 0 days; for mono(POC) PMPA fumarate%: degradation product in stored BPPF. Type of data set: physicochemical. The text has this: The solid state chemical stability of cBPPF and bis(POC)PMPA•citrate salt was compared by analyzing each compound after storage under different conditions.

The conditions of data set [2]: human, in vivo.
A short description of data set [3]: hygroscopicity at 92% relative humidity. The format is physicochemical. To be noted: crystals kept at 92% relative humidity and room temperature for up to 37 days.

Turning to “9-[2-(R)-[[Bis[[(isopropoxycarbonyl)oxy]methoxy]phosphinoyl]methoxy]propyl]adenine• fumaric acid [BPPF]”, in data set [1] (40°C), the BPPF% stood at 99.0% and the “mono(POC) PMPA fumarate%” value is reported as 1.0%. Further, in data set [1] (60°C), the BPPF% came to 99.0% and the “mono(POC) PMPA fumarate%” value was 1.0%. Further, in data set [1] (powder, storage at elevated temperature and relative humidity), the “solid state chemical stability compared with bis(POC)PMPA citrate salt” value is given as “more stable”. Further, in data set [2], the oral bioavailability was 30-40%. In addition, the hygroscopicity entry in data set [3] is reported as “not hygroscopic”.
